These results are taken from patent US7312330B2, “Bicycloheteroarylamine compounds as ion channel ligands and uses thereof” (Renovis, Inc., priority 2003, dated 2007).

Data set [1] is described as follows: Plasma protein binding by equilibrium dialysis, rat plasma. It is filed as in vitro ADME. The note with it: pH 7.4, 37° C., read-out: plasma protein binding (% Bound). The procedure: (§1) Membranes from Harvard/Amika with a molecular weight cutoff of 5,000 were rinsed with dH2O then placed in pH 7.4 PBS supplied by Gibco. The membranes were allowed to soak for 1 hour. A stock of the test article was pooled with Warfarin, Atropine at 2 mM in DMSO. The test article was then dosed into human plasma in sodium citrate, Rat Plasma, and Mouse Plasma to a final 10 μM concentration (0.5% DMSO v/v).
(§2) The pre-soaked membranes were then placed into dialysis chambers. 500 μL of PBS was added to one side of the chamber, and 500 μL of the Matrix containing the test article was added to the other side of the chamber. The chambers were then placed into an enclosed, heated rocker, which was pre-warmed to 37° C. and allowed to reach equilibrium for at least 22 hours. After 22 hours both sides were sampled. 100 μL of the donor side was added to 500 μL of PBS. 100 μL of the PBS side was added to 20 μL of fresh matrix. Samples then were crashed with 1:1 Acetonitrile and centrifuged at 10,000 RPM for 10 minutes. […]
(§3) Standards were prepared in a 1:5 plasma:PBS mixture at 5, 1.5, 0.5, 0.15, 0.05, 0.015 and 0.005 μM concentrations. […] Protein binding values were calculated as follows: % Bound=[(Concentration in Donor−Concentration in Receiver)/(Concentration in Donor)]×100. % Recovery=[(Concentration in donor+Concentration in Receiver)]/(Concentration in Normal Initial)]×100

In a further data set the test system is Sprague-Dawley male rats. The data set is described as follows: Thermal hyperalgesia (carrageenan, paw withdrawal latency). It is filed as in vivo. Conditions: rat, 30 mg/kg, two hours after administration. The procedure:
Sprague-Dawley male rats obtained from Charles River, San Diego, Calif. were purchased at 150-175 g, and held for at least one week before testing. Pain was induced by injecting 100 μl of 2% carrageenan in 0.9% saline sub-Q into the right ventral hindpaw while the animals were under isofluorane anesthesia. Animals were then dosed one hour after with a concentration of 30 mg/kg of Compound 1. Two hours later, after acclimatizing in testing chambers for 20-30 minutes, animals were tested on both hindpaws for latency of paw withdrawal using a thermal testing apparatus. 2-3 trials were conducted with 10 minutes between trials. […] The figure depicts the time in seconds until animals withdraw from thermal stimulation at baseline and two hours after administration of delivery vehicle, control compound, and the dose of 30 mg/kg of Compound 1.

Data set [2] can be described thus: Plasma protein binding by equilibrium dialysis, human plasma. It counts as in vitro ADME. The note with it: pH 7.4, 37° C., read-out: plasma protein binding (% Bound). The protocol:
as §1, §2, §3

Where only a bound is given, the exact number is not on record here.

`FC(F)(F)c1ccc(Nc2ncnc3c2CCN(c2ncccc2Cl)C3)cc1` [Compound 1]: the fraction unbound at 22 h, 10 μM in data set [1] and in data set [2] was below 0.001 in each case. Further, in the data set with Sprague-Dawley male rats, the “latency of paw withdrawal (reversal of thermal hyperalgesia)” value is “significantly increased latency of paw withdrawal”.
